# Experimental data: patent US11446352B2, “Compositions and methods for inhibiting tumor-induced immune suppression” (priority 2017, dated 2022)
# Tested on: E0771 tumors
# Assay: E0771 syngeneic tumor model in C57BL/6 immunocompetent mice
# Format: in vivo
# Settings: for anti-tumor activity (tumor volume): C57BL/6, 10 mg/kg every other day
# Description: 50,000 E0771 cells were surgically implanted in mammary fad pad of 10 C57BL/6 immunocompetent mice and 10 immunocompromised nude mice. 12 days after surgery, B6 and nude mice were divided into two groups each. the EnnA group was injected with 10 mg/kg of EnnA every other day, and the control group received a mixture of 15% DMSO and 20% cremophor in PBS.
# 100,000 E0771 cells were surgically implanted in mammary fat pad of 20 mice. Ten days after surgery, mice were divided into two groups: the EnnA group was injected with 10 mg/kg of EnnA every other day, and the control group received a mixture of 15% DMSO and 20% cremophor in PBS.
smiles,measurement,setting,value
"CC[C@H](C)[C@H]1C(=O)O[C@H](C(C)C)C(=O)N(C)[C@@H]([C@@H](C)CC)C(=O)O[C@H](C(C)C)C(=O)N(C)[C@@H]([C@@H](C)CC)C(=O)O[C@H](C(C)C)C(=O)N1C [EnnA, Enniatin A]",effect on bodyweight or activities of mice,10 mg/kg every other day,No significant effect
same,anti-tumor activity (tumor volume),"Example 3: 50,000 E0771 cells",powerful anti-tumor activity
same,anti-tumor activity (tumor volume),"Example 4: 100,000 E0771 cells",powerful anti-tumor activity
